Source: PMC8744835, “Sterically Hindered Quaternary Phosphonium Salts (QPSs): Antimicrobial Activity and Hemolytic and Cytotoxic Properties” (International Journal of Molecular Sciences, 2021)

Legend:
[1] = test system: Candida albicans ATCC 10231; assay: Fungicidal activity, serial dilution technique; type: cell-based; details: average of three ± SD, - means non-active
Experimental: (§1) The synthesized compounds were tested for antimicrobial activity against a number of Gram-positive bacteria, Staphylococcus aureus (Sa), Bacillus cereus (Bc) and Enterococcus faecalis (Ef), and Gram-negative bacteria, Escherichia coli (Ec) and Pseudomonas aeruginosa (Pa), including the methicillin-resistant strains S. aureus MRSA-1 (resistant to fluoroquinolones and beta-lactams) and MRSA-2 (resistant to beta-lactams). The methicillin-resistant strains S. aureus were transferred by the Republican Clinical Hospital of the Republic of Tatarstan (Kazan). The fungicidal activity against Candida albicans (Ca) and Trichophyton mentagrophytes var. gypseum (Tm) was studied. These pathogens were chosen because they are the most widespread in the food industry and the healthcare system.
(§2) The antimicrobial activity of the QPSs was determined using the serial dilution technique in Mueller–Hinton Broth 2. The cultures used for testing included the Gram-positive bacteria Staphylococcus aureus ATCC 6538P FDA 209P, Enterococcus faecalis ATCC 2921 and Bacillus cereus ATCC 10702 NCTC 8035, the Gram-negative bacteria Escherichia coli ATCC 25922 and Pseudomonas aeruginosa ATCC 9027, and the fungi Trichophyton mentagrophytes var. gypseum 1773 and Candida albicans ATCC 10231; methicillin-resistant strains of S. aureus MRSA were obtained from hospital patients with chronic tonsillitis (MRSA-1) and sinusitis (MRSA-2) in the Republican Clinical Hospital (Kazan, Russia). Ciprofloxacin and ketoconazole were purchased from Sigma-Aldrich. The bacterial load was 3.0 × 10^5 cfu/mL. The results were recorded every 24 h for 5 days. The cultures were incubated at 37 °C. The experiment was repeated three times. […] The minimum inhibitory concentration (MIC) was defined as the minimum concentration of a compound that inhibits the growth of the corresponding test micro-organism. The growth of bacteria as well as the absence of growth due to the bacteriostatic action of a compound was recorded.

[2] = test system: Trichophyton mentagrophytes var. gypseum 1773; assay: Fungicidal activity, serial dilution technique; type: cell-based; details: Tm, average of three ± SD, - means non-active; for MBC / MIC: Trichophyton mentagrophytes; for MBC: read-out: Minimum Bactericidal and Fungicidal Concentration (MBC, MFC), Tm; for MIC: read-out: Minimum Inhibitory Concentration (MIC), Tm
Experimental: as §1, §2

[3] = test system: Staphylococcus aureus ATCC 6538P FDA 209P; assay: Antimicrobial activity, serial dilution technique in Mueller–Hinton Broth 2; type: cell-based; details: average of three ± SD, - means non-active
Experimental: as §1
as §2, with “Ciprofloxacin and ketoconazole were purchased from Sigma-Aldrich.” left out

[4] = test system: Pseudomonas aeruginosa ATCC 9027; assay: as above; type: cell-based; details: average of three ± SD, - means non-active; for MBC / MIC: Pseudomonas aeruginosa, ATCC9027, Pa; for MBC: read-out: Minimum Bactericidal and Fungicidal Concentration (MBC, MFC), Pa; for MIC: read-out: Minimum Inhibitory Concentration (MIC), Pa
Experimental: as §1
as §2, with “Ciprofloxacin and ketoconazole were purchased from Sigma-Aldrich.” left out

[5] = test system: Bacillus cereus ATCC 10702 NCTC 8035; assay: as above; type: cell-based; details: average of three ± SD, - means non-active
Experimental: as §1
as §2, with “Ciprofloxacin and ketoconazole were purchased from Sigma-Aldrich.” left out

[6] = test system: Enterococcus faecalis ATCC 2921; assay: as above; type: cell-based; details: Ef; average of three ± SD; - means non-active
Experimental: as §1
as §2, with “Ciprofloxacin and ketoconazole were purchased from Sigma-Aldrich.” left out

[7] = test system: Escherichia coli ATCC 25922; assay: as above; type: cell-based; details: average of three ± SD, - means non-active; for MIC: Escherichia coli, ATCC25922, Ec, read-out: Minimum Inhibitory Concentration (MIC), Ec
Experimental: as §1
as §2, with “Ciprofloxacin and ketoconazole were purchased from Sigma-Aldrich.” left out

[8] = test system: Escherichia coli ATCC 25922; assay: as above; type: cell-based; details: average of three ± SD, - means non-active
[9] = test system: methicillin-resistant S. aureus MRSA-1; assay: as above; type: cell-based, Staphylococcus aureus; details: - means non-active; for Minimum Inhibitory Concentration (MIC), MRSA-1: MRSA-1 (resistant to fluoroquinolones and beta-lactams)
Experimental: as §1
as §2, with “Ciprofloxacin and ketoconazole were purchased from Sigma-Aldrich.” left out

[10] = test system: methicillin-resistant S. aureus MRSA-2; assay: as above; type: cell-based, Staphylococcus aureus; details: - means non-active; for Minimum Inhibitory Concentration (MIC), MRSA-2: MRSA-2 (resistant to beta-lactams)
Experimental: as §1
as §2, with “Ciprofloxacin and ketoconazole were purchased from Sigma-Aldrich.” left out

Row | Structure (SMILES) | Minimum Inhibitory Concentration (MIC), Sa [3] [µg/mL] | Minimum Inhibitory Concentration (MIC), Pa [4] [µg/mL] | Minimum Inhibitory Concentration (MIC), Bc [5] [µg/mL] | Minimum Inhibitory Concentration (MIC), Ef [6] [µg/mL] | Minimum Inhibitory Concentration (MIC), Ec [7] [µg/mL] | Minimum Inhibitory Concentration (MIC), MRSA-1 [9] [µg/mL] | Minimum Inhibitory Concentration (MIC), MRSA-2 [10] [µg/mL] | Minimum Bactericidal and Fungicidal Concentration (MBC, MFC), Ca [1] [µg/mL] | Minimum Inhibitory Concentration (MIC), Ca [1] [µg/mL] | Minimum Bactericidal and Fungicidal Concentration (MBC, MFC), Tm [2] [µg/mL] | Minimum Inhibitory Concentration (MIC), Tm [2] [µg/mL] | Minimum Bactericidal and Fungicidal Concentration (MBC, MFC), Sa [3] [µg/mL] | Minimum Bactericidal and Fungicidal Concentration (MBC, MFC), Pa [4] [µg/mL] | Minimum Bactericidal and Fungicidal Concentration (MBC, MFC), Bc [5] [µg/mL] | Minimum Bactericidal and Fungicidal Concentration (MBC, MFC), Ef [6] [µg/mL] | Minimum Bactericidal and Fungicidal Concentration (MBC, MFC), Ec [8] [µg/mL] | Minimum Bactericidal and Fungicidal Concentration (MBC, MFC), MRSA-1 ([9]; MRSA-1) [µg/mL] | Minimum Bactericidal and Fungicidal Concentration (MBC, MFC), MRSA-2 [10] [µg/mL] | MBC [2] [µg/mL] | MIC [2] [µg/mL] | other results
1 | CCCCCCCCCCCCCCC[P+](C(C)(C)C)(C(C)(C)C)C(C)(C)C [Compound 15b] | 0.2 ± 0.01 | 3.9 ± 0.2 | 0.5 ± 0.03 | 0.5 ± 0.04 | 3.9 ± 0.2 | 0.3 ± 0.01 | 0.5 ± 0.03 | 15.6 ± 1.2 | 1.9 ± 0.1 | 62.5 ± 5.2 | 62.5 ± 5.5 | 0.5 ± 0.03 | 3.9 ± 0.3 | 15.6 ± 1.3 | 3.9 ± 0.2 | 3.9 ± 0.2 | 0.3 ± 0.01 | 0.5 ± 0.04 | – | – | –
2 | CCCCCCCCCCCCCCCC[P+](C(C)(C)C)(C(C)(C)C)C(C)(C)C [Compound 16b] | 0.5 ± 0.03 | 3.9 ± 0.02 | 1.9 ± 0.1 | 0.5 ± 0.04 | 1.9 ± 0.1 | 1.9 ± 0.1 | 0.5 ± 0.03 | 3.9 ± 0.2 | 3.9 ± 0.2 | – | – | 0.5 ± 0.03 | 62.5 ± 5.3 | 31.3 ± 2.4 | 0.5 ± 0.03 | 1.9 ± 0.1 | 15.6 ± 1.2 | 3.9 ± 0.2 | 62.5 ± 5.5 | 62.5 ± 5.6 | –

More lines, main results first:

Row | Minimum Inhibitory Concentration (MIC), Sa [3] [µg/mL] | Minimum Inhibitory Concentration (MIC), Pa [4] [µg/mL] | Minimum Inhibitory Concentration (MIC), Bc [5] [µg/mL] | Minimum Inhibitory Concentration (MIC), Ef [6] [µg/mL] | Minimum Inhibitory Concentration (MIC), Ec [7] [µg/mL] | Minimum Inhibitory Concentration (MIC), MRSA-1 [9] [µg/mL] | Minimum Inhibitory Concentration (MIC), MRSA-2 [10] [µg/mL] | Structure (SMILES) | Minimum Bactericidal and Fungicidal Concentration (MBC, MFC), Ca [1] [µg/mL] | Minimum Inhibitory Concentration (MIC), Ca [1] [µg/mL] | Minimum Bactericidal and Fungicidal Concentration (MBC, MFC), Tm [2] [µg/mL] | Minimum Inhibitory Concentration (MIC), Tm [2] [µg/mL] | Minimum Bactericidal and Fungicidal Concentration (MBC, MFC), Sa [3] [µg/mL] | Minimum Bactericidal and Fungicidal Concentration (MBC, MFC), Pa [4] [µg/mL] | Minimum Bactericidal and Fungicidal Concentration (MBC, MFC), Bc [5] [µg/mL] | Minimum Bactericidal and Fungicidal Concentration (MBC, MFC), Ef [6] [µg/mL] | Minimum Bactericidal and Fungicidal Concentration (MBC, MFC), Ec [8] [µg/mL] | Minimum Bactericidal and Fungicidal Concentration (MBC, MFC), MRSA-1 ([9]; MRSA-1) [µg/mL] | Minimum Bactericidal and Fungicidal Concentration (MBC, MFC), MRSA-2 [10] [µg/mL] | MBC [2] [µg/mL] | MIC [2] [µg/mL] | other results
3 | 0.2 ± 0.01 | – | 0.9 ± 0.07 | 1.9 ± 0.1 | – | 0.9 ± 0.06 | 0.9 ± 0.07 | CCCCCCCCCCCCCCCCC[P+](C(C)(C)C)(C(C)(C)C)C(C)(C)C [Compound 17a] | – | – | – | – | – | – | – | 1.9 ± 0.1 | – | 0.9 ± 0.07 | 0.9 ± 0.06 | 125 ± 10 | 125 ± 10 | MBC ([1]; Candida albicans, ATCC10231, Ca, read-out: Minimum Bactericidal and Fungicidal Concentration (MBC, MFC), Ca): 3.9 ± 0.2 µg/mL; MIC ([1]; Candida albicans, ATCC10231, Ca, read-out: Minimum Inhibitory Concentration (MIC), Ca): 1.9 ± 0.1 µg/mL; MBC ([3]; Staphylococcus aureus, Sa, read-out: Minimum Bactericidal and Fungicidal Concentration (MBC, MFC), Sa): 0.5 ± 0.03 µg/mL; MBC [4]: 7.8 ± 0.7 µg/mL; MIC [4]: 7.8 ± 0.5 µg/mL; MBC ([5]; Bacillus cereus, Bc, read-out: Minimum Bactericidal and Fungicidal Concentration (MBC, MFC), Bc): 15.6 ± 1.2 µg/mL; MIC [7]: 15.6 ± 1.2 µg/mL; MBC ([8]; Escherichia coli, ATCC25922, Ec, read-out: Minimum Bactericidal and Fungicidal Concentration (MBC, MFC), Ec): 15.6 ± 1.3 µg/mL
4 | 0.9 ± 0.08 | – | 7.8 ± 0.6 | 0.9 ± 0.07 | – | 0.9 ± 0.07 | 0.9 ± 0.07 | CCCCCCCCCCCCCCCCCC[P+](C(C)(C)C)(C(C)(C)C)C(C)(C)C [Compound 18a] | 3.9 ± 0.2 | 1.9 ± 0.1 | – | – | 0.9 ± 0.07 | – | 31.3 ± 2.5 | 0.9 ± 0.07 | 15.6 ± 1.1 | – | 0.9 ± 0.07 | 125 ± 9 | 125 ± 11 | MBC [4]: 62.5 ± 5.6 µg/mL; MIC [4]: 15.6 ± 1.2 µg/mL; MIC [7]: 15.6 ± 1.3 µg/mL; MBC ([9]; Staphylococcus aureus, MRSA, MRSA-1, read-out: Minimum Bactericidal and Fungicidal Concentration (MBC, MFC), MRSA-1): 15.6 ± 1.2 µg/mL
5 | 1.9 ± 0.1 | 15.6 ± 1.3 | 31.3 ± 2.2 | 1.9 ± 0.1 | 15.6 ± 1.3 | 7.8 ± 0.6 | 3.9 ± 0.2 | CCCCCCCCCCCCCCCCCC[P+](C(C)(C)C)(C(C)(C)C)C(C)(C)C [Compound 18b] | 15.6 ± 1.2 | 7.8 ± 0.7 | 250 ± 19 | 250 ± 19 | 3.9 ± 0.2 | 31.3 ± 2.5 | 125 ± 11 | 3.9 ± 0.2 | 62.5 ± 5.4 | 15.6 ± 1.2 | 3.9 ± 0.3 | – | – | –
